Holding throughout (format): cell-based
One data set relates to A. baumannii ATCC 19606. The experiment in a line: MIC alone and MIC of colistin in combination with DNM compounds. To be noted: compound alone. The procedure:
(§1) The medium employed for the assay was Mueller Hinton II Broth (MHB II; Becton-Dickinson, Sparks, MD, USA). Agar plates used for the organisms were trypticase soy agar plus 5% sheep blood (BD; Sparks, MD, USA). MIC assay plates were prepared using the CLSI broth microdilution procedure. Automated liquid handlers (Multidrop 384, Biomek 2000 and Biomek FX) were used to conduct serial dilutions and liquid transfers. A standardized inoculum of each organism was prepared per CLSI methods. Suspensions were prepared to equal a 0.5 McFarland standard, followed by a 1:20 dilution in test media. The inocula were dispensed into sterile reservoirs divided by length (Beckman Colter) and the Biomek 2000 was used to inoculate the plates. Daughter plates were placed on the Biomek 2000 work surface in reverse orientation so that inoculation took place from low to high drug concentration. The Biomek 2000 delivered 10 μL of the diluted suspension into each well. These inoculations yielded a final cell concentration in the daughter plates of ~5 × 10^5 colony-forming units/mL in each well. The wells of the daughter plates ultimately contained 185 μL of broth, 5 μL of drug solution, and 10 μL of bacterial inoculum. Plates were covered with a sterile lid on the top plate, placed in plastic bags, and incubated at 35 °C for ~18 h. The microplates were viewed from the bottom using a plate viewer and the MIC was read. The MIC was recorded as the lowest concentration of drug that inhibited visible growth of the organism. Uninoculated solubility control plates were also observed for evidence of drug precipitation.
(§2) Compound K. pneumoniae A. baumannii E. coli P. aeruginosa […]
(§3) Supplementary Table 3. Minimum inhibitory concentration (MIC; µg/ml) of DNM
(§4) compounds that show potential synergy in combination with colistin. […]

A further data set concerns E. coli ATCC 25922. The data set is described as above. Conditions: compound alone, bracket after colistin value is a range (0.25-2). The procedure: as §1, §2, §3, §4
The test system of another data set is K. pneumoniae MMX8390. The description is as above. To be noted: compound alone. The procedure:
as §1, §2, §3, §4

Another data set concerns P. aeruginosa ATCC 27853. The description is as above. Conditions: compound alone, bracket after colistin value is a range (0.25-4). On the procedure:
as §1, §2, §3, §4

In the next data set the test system is K. pneumoniae. The experiment in a line: FIC checkerboard testing with colistin (FICI). Conditions: in combination with colistin. The procedure: For FIC testing, test ranges were set based on broth microdilution MIC test data. The wells of a standard 96-well microdilution plate (Costar) were filled with 150 μL of water in columns 2 through 12. A 300 μL aliquot of colistin at 40X the highest final concentration to be tested was added to each well in Column 1 of the plate. The Biomek 2000 was used to make eleven 2-fold serial dilutions in the “combination agent parental” plate from columns 2 through 11. The wells of the “test-agent parental” plate were filled with 150 μL of DMSO in rows B through H. Row A of this plate was filled with 300 μL of the DNM compound stock solution at 40X the highest final concentration to be tested. Serial 2-fold dilutions were then prepared from row B-G by hand using a multichannel pipette. The “daughter plates” were loaded with 180 μL of CAMHB using the Multidrop 384. The Biomek FX was used to transfer 5 μL of colistin from each well of the comparator parental plate to the corresponding well in all the daughter plates in a single step. Then a 5 μL aliquot from each well of the test agent parental plate was transferred by hand into the corresponding well of the daughter plate. Row H and Column 12 each contained serial dilutions of test agent and the combination agent alone, respectively, for determination of the MIC. This procedure was repeated for all test agents evaluated in combination with comparators. A standardized inoculum of each organism was prepared per CLSI methods. Colonies were picked from the primary plate and a suspension was prepared to equal a 0.5 McFarland turbidity standard. The suspensions were additionally diluted 1:20 in broth. A 10 μL standardized inoculum was delivered into each well using the Biomek 2000 from low to high concentration. These inoculations yielded a final cell concentration in the daughter plates of […]. Thus, the wells of the daughter plates ultimately contained […], 5 μL of test agent, 5 μL of the colistin, and 10 μL of inoculum. […] Plates were covered with a lid on the top plate, placed in plastic bags, and incubated at 35 °C for ~18 h. Plates were viewed from the bottom using a plate viewer. Prepared reading sheets were marked for the MIC of the combination agent, the MIC of test agent, and the wells of the growth-no growth interface for wells containing test agent and combination agent at varying ratios. […] For each relevant row of the panel, the FIC index (FICI) and mean FICI was calculated by: FICdrug A/MICdrug A + FICdrug B/MICdrug B = FIC index (FICI). The mean FICI for the combination was interpreted as follows: <0.5 = synergy, >0.5–4 = additive/indifferent, and >4 = antagonism. Microbiological measurements were performed and evaluated with Micromyx LLC (Kalamazoo, MI, USA).

Another data set relates to COS7 cells. Put plainly: in vitro. To be noted: COS7 cells. On the procedure:
(§5) Stock solutions of the test agents were prepared in DMSO (40 mg/mL) and stored at −20 °C until use. AlamarBlue HS™ cell viability reagent was acquired from Invitrogen (Cat # A50100, Carlsbad, CA). COS7 and HEK293 cells (obtained from ATCC) were cultured and tested at 37 °C in a 5% CO2/100% humidity environment in DMEM media supplemented with 10% fetal bovine serum. Cells were trypsinized, centrifuged, resuspended in cell media, counted on a hemacytometer, and diluted to an appropriate cell density to give the desired number of cells per 300 μl media. Cells were then loaded into 48-well cell culture plates (3548; Corning, Inc.); 300 μl/well at 60,000 cells per well. The cell density was determined in preliminary tests to give linear AlamarBlue HS™ readings over a 3.5 h period for HEK293 cells and 2 h period for COS7 cells after 2 days of growth; 2 wells per plate were loaded with 300 μl/well of cell-free media to provide background readings. Plates were cultured overnight, after which test agent solutions were prepared in media at the highest test concentration (100 ug/mL) and at five serial dilutions, each containing 0.25% DMSO and 0.125% Kolliphor® EL (Cat# 27963, Sigma Aldrich). The compounds concentrations were then loaded in separate columns via 300 μl/well. […] Normalized values representing the amount of AlamarBlue converted to its […] form were calculated for each well using background-corrected absorbances as described by the Alamar-Blue HS protocol information packet available from Invitrogen Technical Support. The fraction of control viability for each agent concentration with each cell line was then determined by the ratio of normalized values for the treated wells to the control wells. […] Values were determined by linear interpolation of fraction of control growth against concentration for the test agent concentrations.

The next data set concerns HEK293 cells. Put plainly: in vitro. The procedure:
as §5

Converted amounts (≈) assume the structure as drawn.

As usually defined, the MIC is the smallest concentration in the dilution series that meets the test's criterion for growth inhibition. As a reminder, the LC50 is the concentration lethal to half of the exposed cells or organisms. A low value points to greater toxicity.

As to `Cc1cc(Cl)ccc1-c1cc(C(N)=O)sc1-c1ccc(Cl)cc1C` [DNM0652], the MIC in the data set on A. baumannii ATCC 19606, with E. coli ATCC 25922, in the data set with K. pneumoniae MMX8390 and in the data set with P. aeruginosa ATCC 27853 was above 64 µg/mL throughout. The “Mean FICI” value in the data set on K. pneumoniae (K. pneumoniae (ATCC 13883)) stood at 0.19; in the data set on K. pneumoniae (K. pneumoniae (FDA-CDC AR-BANK0040)), 0.41; in the data set on K. pneumoniae (K. pneumoniae (FDA-CDC AR-BANK0046)), 0.4; with K. pneumoniae (K. pneumoniae (FDA-CDC AR-BANK0047)) it was 0.3; in the data set on K. pneumoniae (K. pneumoniae (FDA-CDC AR-BANK0087)), 0.38; in the data set on K. pneumoniae (K. pneumoniae (FDA-CDC AR-BANK0097)), 0.34. Further, the “Mean FICI” value with K. pneumoniae (K. pneumoniae (FDA-CDC AR-BANK0106)) amounted to 0.32; in the data set with K. pneumoniae (K. pneumoniae (FDA-CDC AR-BANK0109)), 0.35; with K. pneumoniae (K. pneumoniae (FDA-CDC AR-BANK0125)) it was 0.32; in the data set with K. pneumoniae (K. pneumoniae (FDA-CDC AR-BANK0364)), 0.29; in the data set with K. pneumoniae (K. pneumoniae (FDA-CDC AR-BANK0454)), 0.28. In addition, the “interpretation of mean FICI” value in the data set with K. pneumoniae (each strain of the Klebsiella panel) was “Synergy”. Moreover, the LC50 with COS7 cells (24 h) was found to be 37 µg/mL (≈ 98.3 µM); in the data set on HEK293 cells (HEK293 cells, 24 h) it was 35 µg/mL (≈ 93 µM). The “IC50 (cell viability)” value with COS7 cells (24 hrs) stood at 37.434 µg/mL (≈ 99.5 µM); in the data set with HEK293 cells (Hek293 cells, 24 hrs), 35.256 µg/mL (≈ 93.7 µM). Further, the “Log IC50 (cell viability)” value in the data set with HEK293 cells (Hek293 cells, 24 hrs) is given as 4.547.
